Experiments:
[1] = In vitro reactive metabolite assay; assay type: in vitro ADME; settings: data not shown
PKCDELTA = biological target: T1, PKCDELTA (Homo sapiens, UniProt Q05655); test: Millipore kinase panel; assay type: biochemical; settings: read-out: % Control
T1 construct: purchased Millipore KinaseProfiler (kinases); Cerep (receptors and ion channels)

CKIT(D816H) = biological target: T2, CKIT(D816H) (Homo sapiens, UniProt P10721, D816H); test: Millipore kinase panel; assay type: biochemical; settings: read-out: % Control
T2 construct: purchased Millipore KinaseProfiler (kinases); Cerep (receptors and ion channels)

EGFR(T790M) = biological target: T3, EGFR(T790M) (Homo sapiens, UniProt P00533, T790M); test: Millipore kinase panel; assay type: biochemical; settings: read-out: % Control
T3 construct: purchased Millipore KinaseProfiler (kinases); Cerep (receptors and ion channels)

BTK(R28H) = biological target: T4, BTK(R28H) (Homo sapiens, UniProt Q06187, R28H); test: Millipore kinase panel; assay type: biochemical; settings: read-out: % Control
T4 construct: purchased Millipore KinaseProfiler (kinases); Cerep (receptors and ion channels)

CDK1/CYCLINB = biological target: T5, CDK1/CYCLINB (Homo sapiens, UniProt P06493); test: Millipore kinase panel; assay type: biochemical; settings: read-out: % Control
T5 construct: purchased Millipore KinaseProfiler (kinases); Cerep (receptors and ion channels)

PI3 KINASE (H1047R/P85A) = biological target: T6, PI3 KINASE (H1047R/P85A) (Homo sapiens, UniProt P42336, H1047R); test: Millipore kinase panel; assay type: biochemical; settings: read-out: % Control
T6 construct: purchased Millipore KinaseProfiler (kinases); Cerep (receptors and ion channels)

PRKAA2 = biological target: T7, PRKAA2 (Homo sapiens, UniProt P54646); test: Millipore kinase panel; assay type: biochemical; settings: read-out: % Control
T7 construct: purchased Millipore KinaseProfiler (kinases); Cerep (receptors and ion channels)

CK1GAMMA3 = biological target: T8, CK1GAMMA3 (Homo sapiens, UniProt Q9Y6M4); test: Millipore kinase panel; assay type: biochemical; settings: read-out: % Control
T8 construct: purchased Millipore KinaseProfiler (kinases); Cerep (receptors and ion channels)

PI3 KINASE (P65A) = test: Millipore kinase panel; assay type: biochemical; settings: 1 μM, ATP at Km
Description: (§1) Supplementary Table S3. Activity of compound 44 tested 1 μM across a panel of 209 non-mutated kinases (Millipore Panel: data expressed as percentage control response versus each kinase tested at its respective Km for ATP). No inhibition was considered sufficient to warrant follow-up with IC50 determination.
(§2) % Inhibition of % Inhibition of […]
(§3) α1 (non-selective) (antagonist radioligand) 8 NTS1 (NT1) (h) (agonist radioligand) -8 α2 (non-selective) (antagonist radioligand) 0 δ2 (DOP) (h) (agonist radioligand) 22 β1 (h) (agonist radioligand) 5 κ (KOP) (agonist radioligand) 72 […]
(§4) AT1 (h) (antagonist radioligand) 8 NOP (ORL1) (h) (agonist radioligand) 3 BZD (central) (agonist radioligand) 18 TP (h) (TXA2/PGH2) (antagonist radioligand) NT B2 (h) (agonist radioligand) 0 5-HT1A (h) (agonist radioligand) 19 […]
(§5) CCK1 (CCKA) (h) (agonist radioligand) 2 5-HT2A (h) (antagonist radioligand) 1 D1 (h) (antagonist radioligand) 7 5-HT2B (h) (agonist radioligand) 6
(§6) D2S (h) (antagonist radioligand) 5 5-HT3 (h) (antagonist radioligand) 9 ETA (h) (agonist radioligand) -9 5-HT5a (h) (agonist radioligand) 1
(§7) GABA (non-selective) (agonist radioligand) 5 5-HT6 (h) (agonist radioligand) 3 GAL2 (h) (agonist radioligand) 2 5-HT7 (h) (agonist radioligand) 1
(§8) CXCR2 (IL-8B) (h) (agonist radioligand) -6 sst (non-selective) (agonist radioligand) 4 CCR1 (h) (agonist radioligand) -4 VPAC1 (VIP1) (h) (agonist radioligand) 0 H1 (h) (antagonist radioligand) 16 V1a (h) (agonist radioligand) -7
(§9) H2 (h) (antagonist radioligand) -2 Ca2+ channel (L, verapamil site) (phenylalkylamine) (antagonist radioligand) 7 MC4 (h) (agonist radioligand) 4 KV channel (antagonist radioligand) -13 MT1 (ML1A) (h) (agonist radioligand) 34 SKCa channel (antagonist radioligand) 3 M1 (h) (antagonist radioligand) 21 Na+ channel (site 2) (antagonist radioligand) 29 M2 (h) (antagonist radioligand) 38 Cl- channel (GABA-gated) (antagonist radioligand) 31 M3 (h) (antagonist radioligand) 46 norepinephrine transporter (h) (antagonist radioligand) 14 NK2 (h) (agonist radioligand) -17 dopamine transporter (h) (antagonist radioligand) 40 5-HT transporter (h) (antagonist radioligand) 70 […]
(§10) receptors, ion channels and enzymes (CEREP). Results are expressed as percent inhibition of control specific binding. […]
(§11) kinases (Millipore Panel: data expressed as percentage control response versus each kinase tested […]
(§12) at its respective Km for ATP).
(§13) Supplementary Figure S1. Dose-dependent reduction of endogenous cMYC mRNA measured by RT-PCR (n = 8) after treatment of 7dF3 cells with 74 at the stated concentration for 2 h […]

PI3 KINASE (P110B/P85A) = test: Millipore kinase panel; assay type: biochemical; settings: 1 μM, ATP at Km
Description: as §1, §2, §3, §4, §5, §6, §7, §8, §9, §10, §11, §12, §13

PI3 KINASE (P110A/P65A) = test: Millipore kinase panel; assay type: biochemical; settings: 1 μM, ATP at Km
Description: as §1, §2, §3, §4, §5, §6, §7, §8, §9, §10, §11, §12, §13

[2] = tested on: PI3 KINASE (P110A(E545K)/P85A); test: Millipore kinase panel; assay type: biochemical; settings: 1 μM, ATP at Km
Description: as §1, §2, §3, §4, §5, §6, §7, §8, §9, §10, §11, §12, §13

CK1(Y) = test: Millipore kinase panel; assay type: biochemical; settings: 1 μM, ATP at Km
Description: as §1, §2, §3, §4, §5, §6, §7, §8, §9, §10, §11, §12, §13

PI3 KINASE (P85A) = test: Millipore kinase panel; assay type: biochemical; settings: 1 μM, ATP at Km
Description: as §1, §2, §3, §4, §5, §6, §7, §8, §9, §10, §11, §12, §13

[3] = tested on: PI3 KINASE (P110A(E542K)/P85A); test: Millipore kinase panel; assay type: biochemical; settings: 1 μM, ATP at Km
Description: as §1, §2, §3, §4, §5, §6, §7, §8, §9, §10, §11, §12, §13

PI3 KINASE (P110D/P85A) = test: Millipore kinase panel; assay type: biochemical; settings: 1 μM, ATP at Km
Description: as §1, §2, §3, §4, §5, §6, §7, §8, §9, §10, §11, §12, §13

[4] = tested on: PI3 KINASE (P110A(H1047R)/P85A); test: Millipore kinase panel; assay type: biochemical; settings: 1 μM, ATP at Km
Description: as §1, §2, §3, §4, §5, §6, §7, §8, §9, §10, §11, §12, §13

FGFR2(N549H) = biological target: T9, FGFR2(N549H) (Homo sapiens, UniProt P21802, N549H); test: Millipore kinase panel; assay type: biochemical; settings: read-out: % Control
T9 construct: purchased Millipore KinaseProfiler (kinases); Cerep (receptors and ion channels)

TIE2(Y897S) = biological target: T10, TIE2(Y897S) (Homo sapiens, UniProt Q02763, Y897S); test: Millipore kinase panel; assay type: biochemical; settings: read-out: % Control
T10 construct: purchased Millipore KinaseProfiler (kinases); Cerep (receptors and ion channels)

T5 sequence (P06493 whole entry): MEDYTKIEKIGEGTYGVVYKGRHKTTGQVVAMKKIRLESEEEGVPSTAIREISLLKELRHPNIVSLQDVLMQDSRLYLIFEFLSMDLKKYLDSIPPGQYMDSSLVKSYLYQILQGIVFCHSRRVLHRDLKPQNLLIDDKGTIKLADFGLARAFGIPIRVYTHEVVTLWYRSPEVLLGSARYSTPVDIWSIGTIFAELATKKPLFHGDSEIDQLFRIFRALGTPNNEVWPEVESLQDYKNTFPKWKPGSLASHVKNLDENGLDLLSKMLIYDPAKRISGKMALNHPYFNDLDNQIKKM
T5 sequence (P14635 whole entry partner): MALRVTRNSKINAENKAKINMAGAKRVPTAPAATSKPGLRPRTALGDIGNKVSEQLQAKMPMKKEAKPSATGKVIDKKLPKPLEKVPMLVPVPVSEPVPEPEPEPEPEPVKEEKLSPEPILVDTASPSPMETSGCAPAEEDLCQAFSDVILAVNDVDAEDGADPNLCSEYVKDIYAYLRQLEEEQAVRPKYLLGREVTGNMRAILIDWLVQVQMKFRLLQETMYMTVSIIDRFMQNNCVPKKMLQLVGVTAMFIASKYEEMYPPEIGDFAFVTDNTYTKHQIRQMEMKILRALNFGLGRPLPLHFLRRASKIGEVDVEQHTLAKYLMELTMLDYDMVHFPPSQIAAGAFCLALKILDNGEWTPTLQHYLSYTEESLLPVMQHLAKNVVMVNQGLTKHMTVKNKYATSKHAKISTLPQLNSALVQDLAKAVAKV
T7 sequence (P54646 whole entry): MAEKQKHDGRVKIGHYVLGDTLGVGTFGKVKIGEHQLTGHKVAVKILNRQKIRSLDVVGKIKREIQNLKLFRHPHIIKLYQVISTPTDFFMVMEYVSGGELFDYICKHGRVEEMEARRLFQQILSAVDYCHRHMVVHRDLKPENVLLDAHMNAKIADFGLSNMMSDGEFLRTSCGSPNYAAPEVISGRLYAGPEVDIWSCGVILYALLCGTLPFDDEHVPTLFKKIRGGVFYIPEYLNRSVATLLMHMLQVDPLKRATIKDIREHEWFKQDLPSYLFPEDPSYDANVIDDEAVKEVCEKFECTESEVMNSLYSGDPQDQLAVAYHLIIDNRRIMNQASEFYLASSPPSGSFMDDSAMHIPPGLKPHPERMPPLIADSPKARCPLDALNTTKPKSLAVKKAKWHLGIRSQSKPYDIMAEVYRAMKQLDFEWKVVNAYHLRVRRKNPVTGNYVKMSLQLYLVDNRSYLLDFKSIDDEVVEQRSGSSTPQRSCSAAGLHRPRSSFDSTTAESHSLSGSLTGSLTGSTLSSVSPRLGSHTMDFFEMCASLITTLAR
T7 sequence (Q9Y478 whole entry partner): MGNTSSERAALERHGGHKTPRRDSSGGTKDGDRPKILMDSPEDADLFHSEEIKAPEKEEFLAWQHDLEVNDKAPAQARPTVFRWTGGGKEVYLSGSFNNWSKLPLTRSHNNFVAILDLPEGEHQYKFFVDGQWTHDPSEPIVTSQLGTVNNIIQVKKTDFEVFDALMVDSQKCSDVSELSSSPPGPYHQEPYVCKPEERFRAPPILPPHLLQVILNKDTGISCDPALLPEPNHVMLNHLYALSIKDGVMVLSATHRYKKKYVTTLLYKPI
T7 sequence (P54619 whole entry partner): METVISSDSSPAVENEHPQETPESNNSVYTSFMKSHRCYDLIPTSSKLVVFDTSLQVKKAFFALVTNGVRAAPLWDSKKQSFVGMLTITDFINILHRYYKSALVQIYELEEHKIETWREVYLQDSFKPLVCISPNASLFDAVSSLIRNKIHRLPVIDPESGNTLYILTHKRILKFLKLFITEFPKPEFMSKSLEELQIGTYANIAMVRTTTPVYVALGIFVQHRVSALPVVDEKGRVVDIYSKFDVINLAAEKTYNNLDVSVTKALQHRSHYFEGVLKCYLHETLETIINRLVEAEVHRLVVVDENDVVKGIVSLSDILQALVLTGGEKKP
T4 sequence (Q06187 whole entry R28H): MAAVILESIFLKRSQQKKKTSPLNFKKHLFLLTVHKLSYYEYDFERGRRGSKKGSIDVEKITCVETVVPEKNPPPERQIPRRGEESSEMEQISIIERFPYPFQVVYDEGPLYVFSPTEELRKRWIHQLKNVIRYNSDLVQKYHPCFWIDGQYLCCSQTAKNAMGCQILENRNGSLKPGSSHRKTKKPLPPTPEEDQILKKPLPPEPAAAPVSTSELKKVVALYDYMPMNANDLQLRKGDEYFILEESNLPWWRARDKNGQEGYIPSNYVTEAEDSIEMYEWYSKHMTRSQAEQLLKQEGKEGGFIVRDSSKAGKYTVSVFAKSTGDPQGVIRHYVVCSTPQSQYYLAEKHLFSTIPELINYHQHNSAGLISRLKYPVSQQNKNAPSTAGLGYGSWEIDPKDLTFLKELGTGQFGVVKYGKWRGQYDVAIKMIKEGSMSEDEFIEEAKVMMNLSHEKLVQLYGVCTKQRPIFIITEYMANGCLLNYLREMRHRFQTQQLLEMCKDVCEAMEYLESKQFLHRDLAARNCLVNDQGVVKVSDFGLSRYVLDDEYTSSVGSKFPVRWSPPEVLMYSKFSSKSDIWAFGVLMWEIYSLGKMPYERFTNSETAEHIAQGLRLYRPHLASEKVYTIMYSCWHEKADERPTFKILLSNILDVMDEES
T9 sequence (P21802 22-821 N549H): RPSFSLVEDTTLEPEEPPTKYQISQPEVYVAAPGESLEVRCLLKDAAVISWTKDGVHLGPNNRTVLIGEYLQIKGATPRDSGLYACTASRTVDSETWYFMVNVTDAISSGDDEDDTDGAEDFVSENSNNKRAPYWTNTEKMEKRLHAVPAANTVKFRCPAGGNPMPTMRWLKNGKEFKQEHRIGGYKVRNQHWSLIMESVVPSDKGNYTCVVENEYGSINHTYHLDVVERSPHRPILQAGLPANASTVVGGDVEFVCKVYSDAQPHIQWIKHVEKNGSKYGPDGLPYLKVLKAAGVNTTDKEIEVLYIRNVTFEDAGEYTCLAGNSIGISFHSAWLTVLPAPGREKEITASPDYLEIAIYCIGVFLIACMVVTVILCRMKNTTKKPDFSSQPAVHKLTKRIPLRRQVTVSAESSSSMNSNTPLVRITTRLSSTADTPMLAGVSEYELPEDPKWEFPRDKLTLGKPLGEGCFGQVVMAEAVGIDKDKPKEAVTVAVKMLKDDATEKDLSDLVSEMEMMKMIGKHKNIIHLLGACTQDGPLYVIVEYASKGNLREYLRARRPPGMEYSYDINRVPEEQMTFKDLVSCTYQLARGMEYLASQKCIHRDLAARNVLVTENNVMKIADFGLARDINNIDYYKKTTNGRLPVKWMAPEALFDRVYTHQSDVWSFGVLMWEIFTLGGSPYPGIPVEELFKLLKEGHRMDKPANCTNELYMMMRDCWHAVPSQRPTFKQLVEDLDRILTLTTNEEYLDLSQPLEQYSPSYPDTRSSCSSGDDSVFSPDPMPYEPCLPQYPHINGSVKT
T2 sequence (P10721 26-976 D816H): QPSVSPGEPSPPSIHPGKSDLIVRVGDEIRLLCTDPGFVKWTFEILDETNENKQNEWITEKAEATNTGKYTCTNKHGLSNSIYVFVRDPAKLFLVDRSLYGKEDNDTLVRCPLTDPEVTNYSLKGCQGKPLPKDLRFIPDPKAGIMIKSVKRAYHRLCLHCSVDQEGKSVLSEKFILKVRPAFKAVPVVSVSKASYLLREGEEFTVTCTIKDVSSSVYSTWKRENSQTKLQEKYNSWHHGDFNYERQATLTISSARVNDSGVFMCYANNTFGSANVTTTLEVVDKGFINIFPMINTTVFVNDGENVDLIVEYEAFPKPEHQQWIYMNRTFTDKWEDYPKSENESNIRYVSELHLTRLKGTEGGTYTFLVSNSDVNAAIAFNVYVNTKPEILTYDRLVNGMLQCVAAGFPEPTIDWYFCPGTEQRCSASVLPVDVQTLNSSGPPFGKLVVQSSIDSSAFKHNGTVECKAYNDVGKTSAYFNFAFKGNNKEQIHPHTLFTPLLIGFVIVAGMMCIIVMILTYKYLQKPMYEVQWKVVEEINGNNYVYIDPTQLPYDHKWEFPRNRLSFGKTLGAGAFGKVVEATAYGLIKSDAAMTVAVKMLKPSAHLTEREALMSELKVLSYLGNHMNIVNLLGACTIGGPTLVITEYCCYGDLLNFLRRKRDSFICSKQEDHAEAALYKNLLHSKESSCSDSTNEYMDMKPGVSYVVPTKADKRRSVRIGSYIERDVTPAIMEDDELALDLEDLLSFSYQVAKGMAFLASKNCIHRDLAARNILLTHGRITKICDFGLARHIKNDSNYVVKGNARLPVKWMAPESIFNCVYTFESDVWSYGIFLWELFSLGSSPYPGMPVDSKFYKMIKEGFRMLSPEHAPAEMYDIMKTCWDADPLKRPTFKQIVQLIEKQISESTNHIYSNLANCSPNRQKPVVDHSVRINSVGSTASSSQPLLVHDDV
T1 sequence (Q05655 whole entry): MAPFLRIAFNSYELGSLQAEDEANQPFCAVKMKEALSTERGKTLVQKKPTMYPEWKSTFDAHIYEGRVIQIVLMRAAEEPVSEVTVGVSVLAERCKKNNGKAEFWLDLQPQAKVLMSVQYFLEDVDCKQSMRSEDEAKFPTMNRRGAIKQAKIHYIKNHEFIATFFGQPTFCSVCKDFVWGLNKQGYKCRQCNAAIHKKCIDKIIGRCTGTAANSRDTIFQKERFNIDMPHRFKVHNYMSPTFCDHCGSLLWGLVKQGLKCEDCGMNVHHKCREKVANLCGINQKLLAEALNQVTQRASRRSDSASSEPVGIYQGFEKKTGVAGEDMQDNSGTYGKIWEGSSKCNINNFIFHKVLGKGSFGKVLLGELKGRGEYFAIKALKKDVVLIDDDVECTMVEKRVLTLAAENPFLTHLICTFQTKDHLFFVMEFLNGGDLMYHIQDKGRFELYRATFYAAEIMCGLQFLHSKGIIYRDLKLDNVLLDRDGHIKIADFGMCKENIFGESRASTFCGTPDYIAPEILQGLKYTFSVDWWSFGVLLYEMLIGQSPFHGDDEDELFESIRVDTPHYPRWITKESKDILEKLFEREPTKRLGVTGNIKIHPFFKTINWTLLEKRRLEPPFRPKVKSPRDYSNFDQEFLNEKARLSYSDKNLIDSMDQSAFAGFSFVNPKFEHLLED

| Structure (SMILES) | glutathione adduct in an in vitro reactive metabolite assay [1] | remaining activity at 1 µM (PKCDELTA) [%] | remaining activity at 1 µM (CKIT(D816H)) [%] | remaining activity at 1 µM (EGFR(T790M)) [%] | remaining activity at 1 µM (BTK(R28H)) [%] | remaining activity at 1 µM (CDK1/CYCLINB) [%] | remaining activity at 1 µM (PI3 KINASE (H1047R/P85A)) [%] | remaining activity at 1 µM (PRKAA2) [%] | remaining activity at 1 µM (CK1GAMMA3) [%] | % Control (PI3 KINASE (P65A)) [%] | % Control (PI3 KINASE (P110B/P85A)) [%] | % Control (PI3 KINASE (P110A/P65A)) [%] | % Control [2] [%] | % Control (CK1(Y)) [%] | % Control (PI3 KINASE (P85A)) [%] | % Control [3] [%] | % Control (PI3 KINASE (P110D/P85A)) [%] | % Control [4] [%] | remaining activity at 1 µM (FGFR2(N549H)) [%] | remaining activity at 1 µM (TIE2(Y897S)) [%] |
| --- | --- | --- | --- | --- | --- | --- | --- | --- | --- | --- | --- | --- | --- | --- | --- | --- | --- | --- | --- | --- |
| O=C1NCCC12CCN(c1c(Cl)cncc1-c1ccc(N3CCOCC3)cc1)CC2 [Compound 44, 8-(3-Chloro-5-(4-morpholin-4-ylphenyl)pyridin-4-yl)-2,8-diazaspiro[4.5]decan-1-one] | generated a glutathione adduct |  |  |  |  |  |  |  |  |  |  |  |  |  |  |  |  |  |  |  |
| Cn1cc(-c2ccc(-c3cncc(Cl)c3N3CCC4(CCNC4=O)CC3)cc2)cn1 [Compound 74, 8-(3-Chloro-5-(4-(1-methyl-1H-pyrazol-4-yl)phenyl)pyridin-4-yl)-2,8-diazaspiro[4.5]decan-1-one] |  | -37 | -7 | 0 | -4 | -9 | -1 | 2 | 1 | 0 | -1 | 0 | -1 | -4 | -1 | 0 | 0 | 2 | 1 | 4 |
